# Data published in the supplement of paper PMC10307832.
# Legend:
# [1] = compound: CC1=C(N=C(N=C1N)[C@H](CC(=O)N)NC[C@@H](C(=O)N)N)C(=O)N[C@@H]([C@H](C2=CN=CN2)OC3C(C(C(C(O3)CO)O)O)OC4C(C(C(C(O4)CO)O)OC(=O)N)O)C(=O)N[C@H](C)[C@H]([C@H](C)C(=O)N[C@@H]([C@@H](C)O)C(=O)NCCC5=NC(=CS5)C6=NC(=CS6)C(=O)NCCC[S+](C)C)O [Bleomycin] + Cc1nc(Nc2ncc(C(=O)Nc3c(C)cccc3Cl)s2)cc(N2CCN(CCO)CC2)n1 [Dasatinib] (partner 0.075 µM); assay: relative viability (nuclei count vs DMSO), 5 days (fraction); higher = more cells survive; details: main component drawn
# Summary of the method: (§1)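 One day after seeding in 1536-well plates, lung cancer cell lines were dosed by pin tool. Dosing was either single-drug or a fixed anchor-drug dose plus five library-drug doses (not always all listed) in √10 steps. After 5 days, nuclei were stained in one fix-and-stain step and counted on 4× images, and relative viability is the nuclei count of treated wells over that of vehicle wells, given as the median of duplicate plates.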
# [2] = compound: CC1=C(N=C(N=C1N)[C@H](CC(=O)N)NC[C@@H](C(=O)N)N)C(=O)N[C@@H]([C@H](C2=CN=CN2)OC3C(C(C(C(O3)CO)O)O)OC4C(C(C(C(O4)CO)O)OC(=O)N)O)C(=O)N[C@H](C)[C@H]([C@H](C)C(=O)N[C@@H]([C@@H](C)O)C(=O)NCCC5=NC(=CS5)C6=NC(=CS6)C(=O)NCCC[S+](C)C)O [Bleomycin] + CCNC(=O)c1noc(-c2cc(C(C)C)c(O)cc2O)c1-c1ccc(CN2CCOCC2)cc1 [Luminespib] (partner 0.01 µM); assay: as above; details: main component drawn
# Summary of the method: as §1
Cell Line,relative viability ([1]; first compound 0.01 µM),relative viability ([1]; first compound 0.03162 µM),relative viability ([1]; first compound 0.1 µM),relative viability ([1]; first compound 0.3162 µM),relative viability ([1]; first compound 1 µM),relative viability ([2]; first compound 0.01 µM),relative viability ([2]; first compound 0.03162 µM),relative viability ([2]; first compound 0.1 µM),relative viability ([2]; first compound 0.3162 µM),relative viability ([2]; first compound 1 µM)
NCI-H2126,0.596,0.619,0.665,0.357,0.276,0.954,0.934,0.872,0.566,0.551
NCI-H1437,0.388,0.422,0.39,0.164,0.23,1.01,0.999,1,0.63,0.585
NCI-H2342,0.311,0.335,0.339,0.274,0.277,0.646,0.665,0.693,0.523,0.525
NCI-H1792,0.698,0.805,1.01,0.439,0.283,0.393,0.424,0.553,0.239,0.251
ChaGo-K-1,0.529,0.552,0.533,0.246,0.264,0.505,0.476,0.502,0.293,0.205
NCI-H661,0.741,0.657,0.623,0.262,0.242,0.78,0.807,0.564,0.299,0.284
COR-L23,0.394,0.276,0.215,0.0981,0.0987,0.501,0.352,0.258,0.122,0.122
COR-L 105,0.325,0.35,0.307,0.238,0.215,0.665,0.743,0.562,0.555,0.386
LK-2,0.209,0.193,0.248,0.176,0.169,0.172,0.15,0.185,0.161,0.169
201T,0.527,0.529,0.546,0.444,0.463,1.06,0.984,0.936,0.667,0.656
NCI-H647,0.101,0.0923,0.0574,0.039,0.0343,0.111,0.169,0.104,0.0882,0.0947
H3255,0.356,0.448,0.426,0.332,0.327,0.817,0.878,0.652,0.52,0.351
NCI-H650,0.389,0.438,0.432,0.289,0.212,0.541,0.729,0.694,0.2,0.15
NCI-H2023,0.345,0.316,0.302,0.163,0.129,0.526,0.531,0.454,0.128,0.0778
NCI-H2347,0.258,0.295,0.266,0.169,0.23,0.275,0.381,0.431,0.235,0.385
NCI-H1944,0.173,0.177,0.159,0.115,0.106,0.363,0.318,0.269,0.176,0.148
NCI-H1793,0.382,0.427,0.329,0.17,0.115,0.169,0.157,0.286,0.175,0.153
NCI-H596,0.548,0.531,0.395,0.24,0.221,0.755,0.617,0.552,0.335,0.377
NCI-H520,0.222,0.217,0.234,0.198,0.154,0.227,0.196,0.218,0.24,0.213
EKVX,0.56,0.435,0.502,0.276,0.26,0.79,0.824,0.804,0.357,0.264
NCI-H358,0.183,0.165,0.176,0.107,0.156,0.307,0.251,0.27,0.23,0.283
EPLC-272H,0.35,0.36,0.272,0.149,0.0954,0.361,0.23,0.203,0.145,0.133

Cell Line,relative viability ([1]; first compound 0.01 µM),relative viability ([1]; first compound 0.03162 µM),relative viability ([1]; first compound 0.1 µM),relative viability ([1]; first compound 0.3162 µM),relative viability ([1]; first compound 1 µM),relative viability ([2]; first compound 0.01 µM),relative viability ([2]; first compound 0.03162 µM),relative viability ([2]; first compound 0.1 µM),relative viability ([2]; first compound 0.3162 µM),relative viability ([2]; first compound 1 µM)
NCI-H1563,0.439,0.452,0.438,0.401,0.47,0.512,0.535,0.479,0.487,0.465
NCI-H1395,0.377,0.413,0.379,0.412,0.381,0.648,0.648,0.54,0.397,0.47
NCI-H2228,0.45,0.495,0.618,0.342,0.172,0.149,0.129,0.186,0.128,0.15
LXF-289,0.19,0.228,0.197,0.077,0.0555,0.568,0.472,0.49,0.133,0.093
NCI-H2009,0.298,0.297,0.311,0.21,0.196,0.962,1.04,0.961,0.704,0.618
SW 900,0.48,0.418,0.241,0.147,0.134,0.187,0.166,0.199,0.185,0.183
NCI-H3122,0.833,0.999,0.749,0.366,0.206,0.103,0.145,0.101,0.111,0.0599
NCI-H1755,0.409,0.433,0.407,0.454,0.29,0.582,0.695,0.22,0.33,0.244
LOU-NH91,0.562,0.391,0.448,0.306,0.251,0.307,0.315,0.307,0.282,0.298
NCI-H322M,0.241,0.26,0.262,0.243,0.263,0.781,0.783,0.709,0.442,0.42
HCC-827,0.228,0.24,0.338,0.245,0.225,0.525,0.576,0.377,0.39,0.233
SW 1573,0.253,0.289,0.434,0.174,0.118,0.508,0.616,0.118,0.174,0.116
NCI-H1975,0.34,0.343,0.287,0.13,0.115,0.29,0.168,0.177,0.164,0.178
NCI-H1651,0.344,0.361,0.384,0.187,0.144,0.538,0.574,0.402,0.257,0.205
NCI-H460,0.362,0.318,0.244,0.0443,0.037,0.0436,0.0291,0.0214,0.0162,0.0138
LCLC-103H,0.382,0.448,0.418,0.316,0.214,0.849,0.826,0.747,0.496,0.333
LCLC-97TM1,0.553,0.576,0.619,0.208,0.123,0.519,0.635,0.51,0.269,0.187
NCI-H838,0.267,0.265,0.243,0.153,0.175,0.269,0.176,0.142,0.119,0.162
NCI-H1355,0.668,0.661,0.84,0.252,0.192,0.672,0.606,0.698,0.304,0.289
HOP-62,0.49,0.479,0.377,0.165,0.106,0.66,0.705,0.462,0.254,0.193
NCI-H2085,0.262,0.221,0.231,0.212,0.209,0.408,0.436,0.369,0.314,0.279
